Legend:
Type in all cases: physicochemical
[1] = Surface tension in ionic buffer solution; details: 0.02 normal aqueous potassium nitrate solution at 25° C.
From the text: Also shown in Table 1 are the corresponding values for the partially neutralized monosodium salts of the corresponding alk(en)yl succinic acids.

[2] = Bar hardness of cleansing bars; details: the higher the hardness, the more desirable
Procedure: (§1) The desirable properties of cleansing bars formed from fully neutralized sodium salts of various alkenyl succinic acids of this invention were determined in a further series of comparative tests. In these tests both the reflectance and the bar hardness were determined. In addition to testing bars of five different fully neutralized succinate salts of this invention, the same properties were measured on four fully compounded commercial soap bars from different well-known soap manufacturers. As can be appreciated, the higher the reflectance the whiter the bar, and the higher the hardness, the more desirable is the bar. In Table 2, the five fully neutralized alkenyl succinic acids are identified in terms of the number of carbon atoms in the alkenyl group. Thus, for example, C6 SAS represents the fully neutralized disodium salt of n-hexenyl succinic acid. As regards reflectance, Commercial Bar B is pink in color, and Commercial Bar C is a coral-orange in color. The other two commercial bars are white.

[3] = Reflectance of cleansing bars; details: bar; the higher the reflectance the whiter the bar
Procedure: as §1

| surface tension [1] | Molecule | Bar Hardness [2] | Reflectance [3] |
| --- | --- | --- | --- |
| 26 millinewtons per meter | CCCCCCCCCCC(CC(=O)[O-])C(=O)[O-].[Na+].[Na+] (stereo not drawn) [Disodium n-decylsuccinate] | – | – |
| 26 millinewtons per meter | CCCCCCCCC(CC(=O)[O-])C(=O)[O-].[Na+].[Na+] (stereo not drawn) [Disodium n-octylsuccinate] | – | – |
| 26.32 millinewtons per meter | CCCCCCCCCCC(CC(=O)O)C(=O)[O-].[Na+] (stereo not drawn) [Monosodium n-decylsuccinate, reference compound] | – | – |
| 26.64 millinewtons per meter | CCCCCCCCC(CC(=O)O)C(=O)[O-].[Na+] (stereo not drawn) [Monosodium n-octylsuccinate, reference compound] | – | – |
| 26 millinewtons per meter | Disodium n-tetradecenylsuccinate | 144 | 74 |
| 26 millinewtons per meter | Monosodium n-tetradecenylsuccinate [reference compound] | – | – |

| Molecule | surface tension [1] | Bar Hardness [2] | Reflectance [3] |
| --- | --- | --- | --- |
| Disodium n-dodecenylsuccinate | 25.8 millinewtons per meter | 132 | 87 |
| Monosodium n-dodecenylsuccinate [reference compound] | 26.32 millinewtons per meter | – | – |

Reference: patent publication US6352966B1, “Cleansing bars” (Albemarle Corporation, priority 2000, dated 2002)
